Consider 13 molecules from patent US20230183218A1, “CONDENSED SUBSTITUTED HYDROPYRROLES AS ANTAGONISTS OF THE MUSCARINIC ACETYLCHOLINE RECEPTOR M4” (Vanderbilt University, priority 2020, published 2023).

One test has as its target T1, Rat M4 (Rattus norvegicus, UniProt P08485).
T1 construct: expressed in transfected cells; host or cells: CHO-K1 (ATCC), stably co-expressing chimeric G protein Gqi5
T1 sequence (P08485 1-478): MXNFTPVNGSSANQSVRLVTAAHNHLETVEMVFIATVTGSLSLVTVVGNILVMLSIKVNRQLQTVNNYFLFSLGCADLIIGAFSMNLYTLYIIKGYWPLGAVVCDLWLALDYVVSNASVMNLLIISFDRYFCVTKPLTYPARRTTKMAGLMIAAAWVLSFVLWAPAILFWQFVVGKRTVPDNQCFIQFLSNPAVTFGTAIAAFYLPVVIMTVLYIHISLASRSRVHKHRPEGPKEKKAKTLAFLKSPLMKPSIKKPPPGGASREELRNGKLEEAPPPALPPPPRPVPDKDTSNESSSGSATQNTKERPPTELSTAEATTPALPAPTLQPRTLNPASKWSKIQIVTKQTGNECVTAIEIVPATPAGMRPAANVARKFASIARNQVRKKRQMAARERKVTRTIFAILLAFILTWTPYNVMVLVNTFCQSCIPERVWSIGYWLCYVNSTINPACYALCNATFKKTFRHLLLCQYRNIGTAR
Kind of test: mAChR M4 cell-based functional assay (calcium flux, antagonist mode vs EC80 acetylcholine), rat M4/Gqi5/CHO-K1 cells. The following applies: for remaining activity at 30 µM: CHO-K1, % ACh maximum at 30 μM, rat M4, read-out: Rat M4 Emin (%); for IC50: decrease of response elicited by EC80 acetylcholine, rat M4/Gqi5 CHO-K1 cells. As for the experimental part:
(§1) Human or rat M4 cDNA, along with the chimeric G protein Gqi5, were transfected into Chinese hamster ovary (CHO-K1) cells purchased from the American Type Culture Collection using Lipofectamine2000. M4/Gqi5/CHO cells were grown in Ham's F-12 medium containing 10% heat-inactivated fetal bovine serum (FBS), 20 mM HEPES, 500 μg/mL G418 sulfate, and 200 μg/mL Hygromycin B.
(§2) For high throughput measurement of agonist-evoked increases in intracellular calcium, CHO-K1 cells stably expressing muscarinic receptors were plated in growth medium lacking G418 and hygromycin at 15,000 cells/20 μL/well in Greiner 384-well black-walled, tissue culture (TC)-treated, clear-bottom plates (VWR). Cells were incubated overnight at 37° C. and 5% CO2. The next day, cells were washed using an ELX 405 (BioTek) with assay buffer; the final volume was then aspirated to 20 μL. Next, 20 μL of a 2.3 μM stock of Fluo-4/acetoxymethyl ester (Invitrogen, Carlsbad, Calif.), prepared as a 2.3 mM stock in DMSO and mixed in a 1:1 ratio with 10% (w/v) Pluronic F-127 and diluted in assay buffer, was added to the wells and the cell plates were incubated for 50 min at 37° C. and 5% CO2. Dye was removed by washing with the ELX 405 and the final volume was aspirated to 20 μL. Compound master plates were formatted in a 10 point concentration-response curve (CRC) format (1:3 dilutions) in 100% DMSO with a starting concentration of 10 or 1 mM using a BRAVO liquid handler (Agilent). Test compound CRCs were then transferred to daughter plates (240 nL) using the Echo acoustic plate reformatter (Labcyte, Sunnyvale, Calif.) and then diluted into assay buffer (40 μL) to a 2× stock using a Thermo Fisher Combi (Thermo Fisher Scientific, Waltham, Mass.).
(§3) Calcium flux was measured using the Functional Drug Screening System (FDSS) 6000 or 7000 (Hamamatsu Corporation, Tokyo, Japan) as an increase in the fluorescent static ratio. Compounds were applied to cells (20 μL, 2×) using the automated system of the FDSS at 2 seconds into the protocol and the data were collected at 1 Hz. At 143 s, 10 μL of an EC20 concentration of the muscarinic receptor agonist acetylcholine was added (5×), followed by the addition of 12 μL of an EC80 concentration of acetylcholine at the 268 s time point (5×). Agonist activity was analyzed as a concentration-dependent increase in calcium mobilization upon compound addition. Positive allosteric modulator activity was analyzed as a concentration-dependent increase in the EC20 acetylcholine response. Antagonist activity was analyzed as a concentration-dependent decrease in the EC80 acetylcholine response; for the purposes of the tables herein, an IC50 (inhibitory concentration 50) was calculated as a concentration-dependent decrease of the response elicited by an EC80 concentration of acetylcholine. Concentration-response curves were generated using a four-parameter logistical equation in XLFit curve fitting software (IDBS, Bridgewater, N.J.) for Excel (Microsoft, Redmond, Wash.) or Prism (GraphPad Software, Inc., San Diego, Calif.) or the Dotmatics software platform (Dotmatics, Bishop's Stortford, UK).
(§4) Compounds were synthesized as described above. Activity (IC50 and Emin) was determined in the mAChR M4 cell-based functional assay as described above and the data are shown in Table 2.
In general terms: Calcium assays in cells follow changes in intracellular calcium, usually with a dye or a luminescent sensor.

In the next test the target is T2, Human M4 (Homo sapiens, UniProt P08173).
T2 construct: expressed in transfected cells; host or cells: CHO-K1 (ATCC), stably co-expressing chimeric G protein Gqi5
T2 sequence (P08173 1-479): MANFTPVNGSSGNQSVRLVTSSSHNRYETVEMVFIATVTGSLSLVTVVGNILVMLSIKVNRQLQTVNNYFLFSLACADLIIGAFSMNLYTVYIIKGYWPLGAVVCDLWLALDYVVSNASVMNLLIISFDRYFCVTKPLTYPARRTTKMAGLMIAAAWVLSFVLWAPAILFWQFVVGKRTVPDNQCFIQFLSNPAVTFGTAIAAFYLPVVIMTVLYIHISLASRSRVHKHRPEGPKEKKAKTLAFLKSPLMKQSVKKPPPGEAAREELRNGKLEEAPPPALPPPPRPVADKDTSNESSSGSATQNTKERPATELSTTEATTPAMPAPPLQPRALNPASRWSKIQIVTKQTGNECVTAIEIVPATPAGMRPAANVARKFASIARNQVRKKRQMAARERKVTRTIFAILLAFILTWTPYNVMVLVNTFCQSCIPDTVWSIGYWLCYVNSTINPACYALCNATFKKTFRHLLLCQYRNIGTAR
Kind of test: mAChR M4 cell-based functional assay (calcium flux, antagonist mode vs EC80 acetylcholine), human M4/Gqi5/CHO-K1 cells. The following applies: for remaining activity at 30 µM: CHO-K1, % ACh maximum at 30 μM, human M4, read-out: Human M4 Emin (%); for IC50: decrease of response elicited by EC80 acetylcholine, human M4/Gqi5 CHO-K1 cells. As for the experimental part: as §1, §2, §3, §4

Bounds are passed on as bounds.

The IC50 is the concentration that gives 50% inhibition. With `COCCCN1C[C@H]2C[C@H](Nc3ccc(-c4cc(F)ccc4Cl)nn3)C[C@H]2C1` [compound 1, (3aR,5s,6aS)-N-(6-(2-chloro-5-fluorophenyl)pyridazin-3-yl)-2-(3-methoxypropyl)octahydrocyclopenta[c]pyrrol-5-amine], the remaining activity at 30 µM worked out at 5% on Rat M4 and 4% on Human M4. Further, the IC50 on Rat M4 stood at 740 nM; at Human M4, 42.2 nM.

In the case of `Fc1ccc(Cl)c(-c2ccc(N[C@H]3C[C@@H]4CN(C5CCOCC5)C[C@@H]4C3)nn2)c1` [compound 2, (3aR,5s,6aS)-N-(6-(2-chloro-5-fluorophenyl)pyridazin-3-yl)-2-(tetrahydro-2H-pyran-4-yl)octahydrocyclopenta[c]pyrrol-5-amine], at Rat M4, the remaining activity at 30 µM was found to be 6% and the half-inhibitory concentration (IC50) worked out at 1270 nM. Also, at Human M4, the remaining activity at 30 µM is 5% and the IC50 is 64.7 nM.

Turning to `O=C(NC1CC1)c1ccc(N[C@H]2C[C@@H]3CN(CC4CCOCC4)C[C@@H]3C2)nn1` [compound 3, N-cyclopropyl-6-(((3aR,5s,6aS)-2-((tetrahydro-2H-pyran-4-yl)methyl)octahydrocyclopenta[c]pyrrol-5-yl)amino)pyridazine-3-carboxamide], on Human M4, the remaining activity at 30 µM was found to be 9% and the IC50 was 417 nM.

For the molecule `O=C(NC1CCCCC1)c1ccc(N[C@H]2C[C@@H]3CN(CC4CCOCC4)C[C@@H]3C2)nn1` [compound 4, N-cyclohexyl-6-(((3aR,5s,6aS)-2-((tetrahydro-2H-pyran-4-yl)methyl)octahydrocyclopenta[c]pyrrol-5-yl)amino)pyridazine-3-carboxamide], at Human M4, the remaining activity at 30 µM stood at 6% and the 50% inhibitory concentration (IC50) is 535 nM.

Turning to `O=C(c1ccc(N[C@H]2C[C@@H]3CN(CC4CCOCC4)C[C@@H]3C2)nn1)N1CCCCC1` [compound 5, piperidin-1-yl(6-(((3aR,5s,6aS)-2-((tetrahydro-2H-pyran-4-yl)methyl)octahydrocyclopenta[c]pyrrol-5-yl)amino)pyridazin-3-yl)methanone], the remaining activity at 30 µM on Rat M4 and at Human M4 was 14% each time. Moreover, the IC50 was above 10000 nM on Rat M4 and 5.45 nM on Human M4.

Turning to `O=C(c1ccc(N[C@H]2C[C@@H]3CN(CC4CCOCC4)C[C@@H]3C2)nn1)N1CCOCC1` [compound 6, morpholino(6-(((3aR,5s,6aS)-2-((tetrahydro-2H-pyran-4-yl)methyl)octahydrocyclopenta[c]pyrrol-5-yl)amino)pyridazin-3-yl)methanone], the remaining activity at 30 µM on Rat M4 amounted to 13%; at Human M4, 21%. Moreover, the IC50 was determined as 7430 nM on Rat M4 and 11.7 nM at Human M4.

For the molecule `O=C(Nc1ccccc1)c1ccc(N[C@H]2C[C@@H]3CN(CC4CCOCC4)C[C@@H]3C2)nn1` [compound 7, N-phenyl-6-(((3aR,5s,6aS)-2-((tetrahydro-2H-pyran-4-yl)methyl)octahydrocyclopenta[c]pyrrol-5-yl)amino)pyridazine-3-carboxamide], the remaining activity at 30 µM amounted to 22% on Rat M4 and 4% at Human M4. Besides, the IC50 at Rat M4 was above 10000 nM; on Human M4, 572 nM.

Take `O=C(Nc1ccccc1F)c1ccc(N[C@H]2C[C@@H]3CN(CC4CCOCC4)C[C@@H]3C2)nn1` [compound 8, N-(2-fluorophenyl)-6-(((3aR,5s,6aS)-2-((tetrahydro-2H-pyran-4-yl)methyl)octahydrocyclopenta[c]pyrrol-5-yl)amino)pyridazine-3-carboxamide]: at Rat M4, the remaining activity at 30 µM was found to be 25% and the IC50 was above 10000 nM. Further, at Human M4, the remaining activity at 30 µM came to 4% and the IC50 was determined as 355 nM.

Take `O=C(Nc1cccc(F)c1)c1ccc(N[C@H]2C[C@@H]3CN(CC4CCOCC4)C[C@@H]3C2)nn1` [compound 9, N-(3-fluorophenyl)-6-(((3aR,5s,6aS)-2-((tetrahydro-2H-pyran-4-yl)methyl)octahydrocyclopenta[c]pyrrol-5-yl)amino)pyridazine-3-carboxamide]: at Human M4, the remaining activity at 30 µM was found to be 3% and the IC50 worked out at 713 nM.

`O=C(Nc1ccc(F)cc1)c1ccc(N[C@H]2C[C@@H]3CN(CC4CCOCC4)C[C@@H]3C2)nn1` [compound 10, N-(4-fluorophenyl)-6-(((3aR,5s,6aS)-2-((tetrahydro-2H-pyran-4-yl)methyl)octahydrocyclopenta[c]pyrrol-5-yl)amino)pyridazine-3-carboxamide]: the remaining activity at 30 µM on Rat M4 was found to be 9%; at Human M4, 4%. In addition, the values for the 50% inhibitory concentration (IC50) on Rat M4 and at Human M4 were 4190 nM and 543 nM, respectively.

On to `N#Cc1ccccc1N1C[C@H]2C[C@H](Nc3ccc(-c4cc(F)ccc4Cl)nn3)C[C@H]2C1` [compound 17, 2-((3aR,5s,6aS)-5-((6-(2-chloro-5-fluorophenyl)pyridazin-3-yl)amino)hexahydrocyclopenta[c]pyrrol-2(1H)-yl)benzonitrile], for which, on Human M4, the remaining activity at 30 µM was determined as 57% and the IC50 was at least 10000 nM.

For the molecule `CC1(C)CC(N2C[C@H]3C[C@H](Nc4ncc(-c5ccccc5)s4)C[C@H]3C2)CCO1` (stereo partly drawn) [compound 19, N-((3aR,5s,6aS)-2-(2,2-dimethyltetrahydro-2H-pyran-4-yl)octahydrocyclopenta[c]pyrrol-5-yl)-5-phenylthiazol-2-amine], at Rat M4, the remaining activity at 30 µM came out at 70% and the IC50 was above 10000 nM.

In the case of `CC1(C)CC(N2C[C@H]3C[C@H](Nc4ccc5nncn5n4)C[C@H]3C2)CCO1` (stereo partly drawn) [compound 61, N-((3aR,5s,6aS)-2-(2,2-dimethyltetrahydro-2H-pyran-4-yl)octahydrocyclopenta[c]pyrrol-5-yl)-[1,2,4]triazolo[4,3-b]pyridazin-6-amine], on Human M4, the remaining activity at 30 µM was 52% and the IC50 was above 10000 nM.
